In US20130172308A1, “ANTIMICROBIAL AGENTS” (John Grant COLLINS, priority 2011, published 2013):

Tests used:
[1] = test system: S. aureus; experiment: Minimum Bactericidal Concentration (MBC) assay (CAMHB); assay type: cell-based, Staphylococcus aureus; conditions: Table 4, all ΔΔ- enantiomers
Experimental: (§1) Further MIC assays and Minimum Bactericidal Concentration (MBC) assays were conducted against Gram-positive and Gram-negative bacterial strains using symmetric and non-symmetric, inert and labile complexes.

[2] = test system: MRSA (a wild clinical strain from the JCU culture collection); experiment: MIC determination, broth micro-dilution (CAMHB); assay type: cell-based, methicillin-resistant S. aureus
Experimental: (§2) Four strains of bacteria were chosen for the susceptibility tests: S. aureus ATCC 25923; MRSA (a wild clinical strain from the JCU culture collection); E. coli ATCC 25922 and P. aeruginosa ATCC 27853. The bacteria were grown on Mueller Hinton agar (OXOID, cat. No. CM0337) and suspended in growth medium cation-adjusted Mueller Hinton broth (CAMHB, OXOID, cat. No. CM0405). The MIC of each complex was determined in duplicate by standard micro-dilution methodology (British Society for Antimicrobial Chemotherapy Working Party, J. Antimicrob. Chemother., 1991, 27(suppl. D), 22) using gentamicin as the positive control. The ruthenium complexes were dissolved in CAMHB to a stock solution of […] and two-fold diluted in the broth in 96-well plates in a final volume of […] in each well. The same volume […] of bacterial suspension was added in each well making a concentration range of 0.25 mg ml^−1 to 128 mg ml^−1 for each complex. The plates were incubated at 37° C. for 24 h. The results are summarised in Table 1 below, using the following abbreviations: • Rubpm=ΔΔ-[{Ru(phen)2}2(μ-2,2′-bipyrimidine)]Cl4 • Rudppm=ΔΔ-[{Ru(phen)2}2(μ-4,6-bis(2-pyridyl)pyrimidine)]Cl4 • Rubb7trinuclear=Δ*Δ*-[{Ru*(phen)2}(μ-bb7){Ru(phen)}(μ-bb7){Ru*(phen)2}]Cl6 (only the two terminal metal centres are chiral, the two central metal centres are racemic) • Rubb7tetranuclear=Δ*Δ*-[{Ru*(phen)2}(μ-bb7) {Ru(phen)}(μ-bb7){Ru(phen)}(μ-bb7)-{Ru*(phen)2}]Cl8 (only the two terminal metal centres are chiral, the two central metal centres are racemic)
as §1

[3] = test system: MRSA; experiment: Minimum Bactericidal Concentration (MBC) assay (CAMHB); assay type: cell-based, methicillin-resistant S. aureus; conditions: Table 4, all ΔΔ- enantiomers
Experimental: as §1

[4] = test system: P. aeruginosa ATCC 27853; experiment: MIC determination, broth micro-dilution (CAMHB); assay type: cell-based, Pseudomonas aeruginosa
Experimental: as §2, §1

[5] = test system: E. coli ATCC 25922; experiment: MIC determination, broth micro-dilution (CAMHB); assay type: cell-based, Escherichia coli
Experimental: as §2, §1

[6] = test system: S. aureus ATCC 25923; experiment: MIC determination, broth micro-dilution (CAMHB); assay type: cell-based, Staphylococcus aureus
Experimental: as §2, §1

[7] = test system: P. aeruginosa; experiment: Minimum Bactericidal Concentration (MBC) assay (CAMHB); assay type: cell-based, Pseudomonas aeruginosa; conditions: Table 4, all ΔΔ- enantiomers
Experimental: as §1

[8] = test system: E. coli; experiment: as above; assay type: cell-based, Escherichia coli; conditions: Table 4, all ΔΔ- enantiomers
Experimental: as §1

[9] = assay type: physicochemical; conditions: pH 7.4
Experimental: The primary difference between the members of the Rubbn family of complexes is the number of methylene groups in the flexible linking chain. […] Lipophilicity is a significant factor affecting the biological activity of most therapeutic compounds, as it relates to the capacity of the drug to penetrate through the cell membrane. The standard octanol-water partition coefficient (logP) was determined for the Rubbn series (F. Lombardo, B. Faller, M. Shalaeva, I. Tetko and S. Tilton, Methods and Principles in Medicinal Chemistry, 2008, 37, 407) parent model mononuclear species ([Ru(phen)2(Me2bpy)]^2+) and the trinuclear and tetranuclear complexes.
The partition coefficients (logP) were measured using the shake flask technique: each ruthenium complex (at both 0.05 and 0.1 mM) was dissolved in the water phase (0.2 M Na2HPO4—NaH2PO4 buffer, pH=7.4) and an equivalent volume of n-octanol was added.
The two phases were mutually saturated by shaking overnight at ambient temperature and then were allowed to separate on standing. The concentration of the metal complex in each phase was determined spectrophotometrically at l=450 nm.

[10] = test system: S. typhimurium; experiment: Further MIC assays, whole spectrum bacteria (CAMHB); assay type: cell-based; conditions: Table 3; Broth: CAMHB
Experimental: (§3) Further MIC assays were conducted against five different bacteria with Rubbn (n=7, 10, 12, 16), two rigid dinuclear species (bridges bpm and dppm) and Gentamicin—Whole spectrum bacteria MIC test results (Broth: CAMHB).

[11] = test system: S. epidermidis; experiment: as above; assay type: cell-based; conditions: Table 3; Broth: CAMHB
Experimental: as §3

[12] = test system: A. baumanii; experiment: as above; assay type: cell-based; set-up: unit not given here; conditions: Table 3; Broth: CAMHB
Experimental: as §3

[13] = test system: VRE; experiment: as above; assay type: cell-based, vancomycin-resistant Enterococcus; conditions: Table 3; Broth: CAMHB
Experimental: as §3

[14] = test system: E. faecalis; experiment: as above; assay type: cell-based; set-up: unit not given beside the values; conditions: Table 3; Broth: CAMHB
Experimental: as §3

[15] = Table 4, CAMHB, all ΔΔ- enantiomers

| Compound | MBC S. aureus [1] [µg/mL] | MIC MRSA [2, 15] | MBC MRSA [3] [µg/mL] | MIC P. aeruginosa [4, 15] | MIC E. coli [5, 15] | MIC S. aureus [6, 15] | MBC P. aeruginosa [7] [µg/mL] | MBC E. coli [8] [µg/mL] | logP [9] | MIC S. typhimurium [10] | MIC S. epidermidis [11] | MIC MRSA ([2]; Table 1, 37° C., 24 h) [µg/mL] | MIC A. baumanii [12] | MIC VRE [13] | MIC P. aeruginosa ([4]; Table 1, 37° C., 24 h) [µg/mL] | MIC E. coli ([5]; Table 1, 37° C., 24 h) [µg/mL] | MIC E. faecalis [14] | MIC S. aureus ([6]; Table 1, 37° C., 24 h) |
| --- | --- | --- | --- | --- | --- | --- | --- | --- | --- | --- | --- | --- | --- | --- | --- | --- | --- | --- |
| Cc1cc[n+]2c(c1)-c1cc(CCCCCCCc3cc[n+]4c(c3)-c3cc(C)cc[n+]3[Ru-4]435([n+]4cccc6ccc7ccc[n+]3c7c64)[n+]3cccc4ccc6ccc[n+]5c6c43)cc[n+]1[Ru-4]213([n+]2cccc4ccc5ccc[n+]1c5c42)[n+]1cccc2ccc4ccc[n+]3c4c21.F[P-](F)(F)(F)(F)F.F[P-](F)(F)(F)(F)F.F[P-](F)(F)(F)(F)F.F[P-](F)(F)(F)(F)F [Rubb7, [{Ru(phen)2}2(μ-bb7)](PF6)4] | 32 | 16 | 32 | 64 | 16 | 16 | 128 | 16 | −3.4 |  |  |  |  |  |  |  |  |  |
| [Cl-].[Cl-].[Cl-].[Cl-].c1cc[n+]2c(c1)-c1cc3[n+](c[n+]1[Ru-4]214([n+]2cccc5ccc6ccc[n+]1c6c52)[n+]1cccc2ccc5ccc[n+]4c5c21)[Ru-4]12([n+]4ccccc4-3)([n+]3cccc4ccc5ccc[n+]1c5c43)[n+]1cccc3ccc4ccc[n+]2c4c31 [Rudppm, ΔΔ-[{Ru(phen)2}2(μ-4,6-bis(2-pyridyl)pyrimidine)]Cl4, reference compound] |  |  |  |  |  |  |  |  |  | >128 | >128 | >128 | >128 | >128 | >128 | >128 | >128 | >128 µg/mL |
| [Ru(phen)2(μ-bb12)Ru(terpy)Cl](PF6)3 [Ru(μ-bb12)Ru—Cl] | 1 | 1 | 2 | 16 | 1 | 1 | 32 | 1 |  |  |  |  |  |  |  |  |  |  |
| [Ru(phen)2(μ-bb16)Ru(terpy)Cl](PF6)3 [Ru(μ-bb16)Ru—Cl] | 2 | 2 | 2 | 64 | 4 | 2 | 64 | 4 |  |  |  |  |  |  |  |  |  |  |
| Cc1cc[n+]2c(c1)-c1cc(CCCCCCCc3cc[n+]4c(c3)-c3cc(C)cc[n+]3[Ru-4]435([n+]4cccc6ccc7ccc[n+]3c7c64)[n+]3cccc4ccc6ccc[n+]5c6c43)cc[n+]1[Ru-4]213([Cl])[n+]2ccccc2-c2cccc([n+]21)-c1cccc[n+]13 [Ru(μ-bb7)Ru—Cl, [Ru(phen)2(μ-bb7)Ru(terpy)Cl]] | 16 | 8 | 32 | 16 | 1 | 8 | 32 | 1 |  |  |  |  |  |  |  |  |  |  |
| [{Ru(terpy)Cl}2(μ-bb7)] [Rubb7-Cl] | 8 | 8 | 16 | 32 | 8 | 8 | 64 | 8 |  |  |  |  |  |  |  |  |  |  |
| Cc1cc[n+]2c(c1)-c1cc(CCCCCCCCCCCCc3cc[n+]4c(c3)-c3cc(C)cc[n+]3[Ru-4]435([Cl])[n+]4ccccc4-c4cccc([n+]43)-c3cccc[n+]35)cc[n+]1[Ru-4]213([Cl])[n+]2ccccc2-c2cccc([n+]21)-c1cccc[n+]13.F[P-](F)(F)(F)(F)F.F[P-](F)(F)(F)(F)F [Rubb12-Cl, [{Ru(terpy)(Cl)}2(μ-bb12)](PF6)2] | 1 | 1 | 1 | 8 | 2 | 1 | 16 | 2 |  |  |  |  |  |  |  |  |  |  |
| ΔΔ-[{Ru(phen)2}2(μ-2,2′-bipyrimidine)]Cl4 [Rubpm, reference compound] |  |  |  |  |  |  |  |  |  | >128 | >128 | >128 | >128 | >128 | >128 | >128 | >128 | >128 µg/mL |
| gentamicin [reference compound] |  |  |  |  |  |  |  |  |  | 2 | <0.125 | 16 | 16 | 16 | 0.125 | 0.5 | 32 | ≦0.0625 μg.ml^−1 |
| [{Ru(terpy)(Cl)}2(μ-bb14)](PF6)2 [Rubb14-Cl] | 1 | 1 | 2 | 32 | 2 | 1 | 64 | 2 |  |  |  |  |  |  |  |  |  |  |
| Cc1ccnc(-c2cc(CCCCCCCc3cc[n+]4c(c3)-c3cc(C)cc[n+]3[Ru-4]435([n+]4cccc6ccc7ccc[n+]3c7c64)[n+]3cccc4ccc6ccc[n+]5c6c43)ccn2)c1 [Rubb7mono, Δ-[Ru(phen)2(bb7)]^2+] |  |  |  |  |  |  |  |  | −0.7 |  |  | 16 |  |  | 32 | 16 |  | 4 µg/mL |
